Results published in patent US8106055B2, “Substituted amide compounds” (Gruenenthal GmbH, priority 2007, dated 2012).

How the values were obtained:
human μ opiate receptor = molecular target: T1, human μ opiate receptor (Homo sapiens, UniProt P35372); assay: Affinity for the human μ opiate receptor ([3H]-naloxone displacement, CHO-K1 receptor membrane preparation, SPA); type: binding; settings: 1.5 h, Table 3, to be read in the same way as Table 1; test concentration 1 μM; read-out: μ
T1 construct: purchased PerkinElmer Life Sciences, Zaventem, Belgium RB-HOM; host or cells: CHO-K1 cells (membrane preparation)
Procedure, shortened: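 Scintillation proximity binding on human μ receptor membranes from CHO-K1 cells used 1 nmol/l [3H]-naloxone over 90 min at room temperature in 50 mmol/l Tris-HCl, 0.06% BSA. Percent inhibition was recorded at 1 μM.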

[1] = molecular target: T2, human bradykinin 1 receptor (B1R) (Homo sapiens, UniProt P46663); assay: Functional investigation on the human bradykinin 1 receptor (B1R), Ca2+ FLIPR assay in CHO K1 hB1R cells; type: cell-based; settings: CHO-K1, B1R antagonism human; test substance 10 μM; Ca2+ FLIPR, CHO K1 hB1R cells; read-out: B1R Ant. h [10 μM] % Inhibition
T2 construct: expressed in transfected cells; host or cells: CHO K1 cells
T2 sequence (P46663 1-353): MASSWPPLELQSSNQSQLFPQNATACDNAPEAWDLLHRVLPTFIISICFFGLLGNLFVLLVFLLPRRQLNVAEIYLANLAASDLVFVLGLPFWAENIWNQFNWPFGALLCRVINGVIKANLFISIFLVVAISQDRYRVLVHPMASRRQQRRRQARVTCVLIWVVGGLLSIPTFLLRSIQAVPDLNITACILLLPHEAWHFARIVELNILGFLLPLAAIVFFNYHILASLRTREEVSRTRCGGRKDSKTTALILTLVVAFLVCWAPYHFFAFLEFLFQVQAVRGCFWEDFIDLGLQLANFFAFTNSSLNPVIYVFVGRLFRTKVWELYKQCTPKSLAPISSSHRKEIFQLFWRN
Procedure, shortened: (§1)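 Cells were dye-loaded with Fluo-4 plus probenecid, then test substances added and Ca2+ influx compared with agonist control for % activation. After 10-20 min, EC80 agonist (Lys-Des-Arg9-bradykinin human; Des-Arg9-bradykinin rat) was applied; suppression gave % inhibition and IC50 values.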

[2] = molecular target: T3, bradykinin 1 receptor (B1R) of the rat (Rattus norvegicus, UniProt P97583); assay: Functional investigation on the rat bradykinin 1 receptor (B1R), Ca2+ FLIPR assay in CHO K1 rB1R cells; type: cell-based; settings: CHO-K1, B1R antagonism rat; test substance 10 μM; Ca2+ FLIPR, CHO K1 rB1R cells; read-out: B1R Ant. r [10 μM] % Inhibition
T3 construct: expressed in transfected cells; host or cells: CHO K1 cells
T3 sequence (P97583 1-337): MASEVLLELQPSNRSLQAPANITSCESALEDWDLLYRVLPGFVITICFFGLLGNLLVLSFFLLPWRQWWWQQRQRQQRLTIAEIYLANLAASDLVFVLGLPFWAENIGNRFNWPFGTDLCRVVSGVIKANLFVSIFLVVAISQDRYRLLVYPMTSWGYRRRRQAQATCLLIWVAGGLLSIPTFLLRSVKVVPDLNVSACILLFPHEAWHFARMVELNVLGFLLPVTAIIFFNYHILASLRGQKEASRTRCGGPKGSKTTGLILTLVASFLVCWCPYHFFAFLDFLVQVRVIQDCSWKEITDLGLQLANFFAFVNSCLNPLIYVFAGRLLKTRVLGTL
Procedure, shortened: as §1

T1 sequence (P35372 whole entry): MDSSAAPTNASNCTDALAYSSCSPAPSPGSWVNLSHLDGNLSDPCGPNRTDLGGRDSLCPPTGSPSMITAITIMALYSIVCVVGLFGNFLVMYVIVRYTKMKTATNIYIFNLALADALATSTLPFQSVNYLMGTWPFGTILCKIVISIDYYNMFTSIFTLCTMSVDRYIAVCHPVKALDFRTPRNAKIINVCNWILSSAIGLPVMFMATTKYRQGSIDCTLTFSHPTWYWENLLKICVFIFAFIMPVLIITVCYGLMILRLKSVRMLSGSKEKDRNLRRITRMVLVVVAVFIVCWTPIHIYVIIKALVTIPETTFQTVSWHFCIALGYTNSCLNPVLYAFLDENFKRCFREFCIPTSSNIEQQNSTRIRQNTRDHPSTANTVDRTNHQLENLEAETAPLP

Structure (SMILES) | inhibition at 1 µM (human μ opiate receptor) | inhibition at 10 µM [1] | inhibition at 10 µM [2]
O=C(COC1CCCN(S(=O)(=O)c2c(Cl)cc(Cl)cc2Cl)C1)NC1CCC(C(CCc2ccccc2)N2CCCCC2)CC1 (stereo not drawn) [Example 673, N-(4-(3-phenyl-1-(piperidin-1-yl)propyl)cyclohexyl)-2-(1-(2,4,6-trichlorophenylsulfonyl)piperidin-3-yloxy)acetamide] | 71% | 57% | 20%
COc1cc(C)c(S(=O)(=O)N2CCCC(OCC(=O)NC3CCC(C(CCc4ccccc4)N4CCOCC4)CC3)C2)c(C)c1 (stereo not drawn) [Example 674, 2-(1-(4-methoxy-2,6-dimethylphenylsulfonyl)piperidin-3-yloxy)-N-(4-(1-morpholino-3-phenylpropyl)cyclohexyl)acetamide] | 7% | 61% | 45%
COc1cc(C)c(S(=O)(=O)N2CCCC(OCC(=O)NC3CCC(C(CCc4ccccc4)N4CCCCC4)CC3)C2)c(C)c1 (stereo not drawn) [Example 675, 2-(1-(4-methoxy-2,6-dimethylphenylsulfonyl)piperidin-3-yloxy)-N-(4-(3-phenyl-1-(piperidin-1-yl)propyl)cyclohexyl)acetamide] | 37% | 97% | 89%
COc1cc(C)c(S(=O)(=O)N2CCCC2COCC(=O)NC2CCC(C(CCc3ccccc3)N3CCOCC3)CC2)c(C)c1 (stereo not drawn) [Example 676, 2-((1-(4-methoxy-2,6-dimethylphenylsulfonyl)pyrrolidin-2-yl)methoxy)-N-(4-(1-morpholino-3-phenylpropyl)cyclohexyl)acetamide] | 10% | 93% | 106%
COc1cc(C)c(S(=O)(=O)N2CCCC2COCC(=O)NC2CCC(C(CCc3ccccc3)N3CCCCC3)CC2)c(C)c1 (stereo not drawn) [Example 677, 2-((1-(4-methoxy-2,6-dimethylphenylsulfonyl)pyrrolidin-2-yl)methoxy)-N-(4-(3-phenyl-1-(piperidin-1-yl)propyl)cyclohexyl)acetamide] | 60% | 104% | 107%
COc1cc(C)c(S(=O)(=O)N2CCCC(COCC(=O)NC3CCC(C(CCc4ccccc4)N4CCOCC4)CC3)C2)c(C)c1 (stereo not drawn) [Example 678, 2-((1-(4-methoxy-2,6-dimethylphenylsulfonyl)piperidin-3-yl)methoxy)-N-(4-(1-morpholino-3-phenylpropyl)cyclohexyl)acetamide] | 6% | 45% | 73%
O=C(COCC1CCCN(S(=O)(=O)c2c(Cl)cc(Cl)cc2Cl)C1)NC1CCC(C(CCc2ccccc2)N2CCCCC2)CC1 (stereo not drawn) [Example 679, N-(4-(3-phenyl-1-(piperidin-1-yl)propyl)cyclohexyl)-2-((1-(2,4,6-trichlorophenylsulfonyl)piperidin-3-yl)methoxy)acetamide] | 51% | 39% | 34%
CN(CCOCC(=O)NC1CCC(C(c2ccccc2)N2CCOCC2)CC1)S(=O)(=O)c1ccc(Cl)cc1Cl (stereo not drawn) [Example 680, 2-(2-(2,4-dichloro-N-methylphenylsulfonamido)ethoxy)-N-(4-(morpholino(phenyl)methyl)cyclohexyl)acetamide] | 4% | 21% | 23%
COc1cc(C)c(S(=O)(=O)N(C)CCOCC(=O)NC2CCC(C(c3ccccc3)N3CCOCC3)CC2)c(C)c1 (stereo not drawn) [Example 681, 2-(2-(4-methoxy-N,2,6-trimethylphenylsulfonamido)ethoxy)-N-(4-(morpholino(phenyl)methyl)cyclohexyl)acetamide] | 10% | 98% | 98%
COc1cc(C)c(S(=O)(=O)N(C)CCOCC(=O)NC2CCC(C(c3ccccc3)N3CCN(C)CC3)CC2)c(C)c1 (stereo not drawn) [Example 682, 2-(2-(4-methoxy-N,2,6-trimethylphenylsulfonamido)ethoxy)-N-(4-((4-methylpiperazin-1-yl)(phenyl)methyl)cyclohexyl)acetamide] | 36% | 104% | 103%
